Measurements reported in patent US10617715B2, “Methods of treating or preventing biofilm associated infections with free available chlorine free available chlorine water” (Sonoma Pharmaceuticals, Inc., priority 2008, dated 2020).
Positions of bridges follow the written chain, without caps; N, C: chain ends. Non-standard residues stand in square brackets, D forms with d. Residues, ends and D or L forms follow the SMILES beside them. *: point of attachment. Ileψ(thiazoline)Cys = CC[C@H](C)[C@H](N)C1=N[C@H](C(=O)*)CS1; dOrn = NCCC[C@@H](N)C(=O)O

Tested on: exponential phase P. aeruginosa
Experiment: Susceptibility testing of exponential phase planktonic P. aeruginosa cells (suspension kill)
Format: cell-based, Pseudomonas aeruginosa
Conditions: bacitracin 33 U/ml, 20 sec.-20 min.

CC[C@H](C)[C@H](N)C1=N[C@H](C(=O)N[C@@H](CC(C)C)C(=O)N[C@H](CCC(=O)O)C(=O)N[C@H](C(=O)N[C@H]2CCCCNC(=O)[C@H](CC(N)=O)NC(=O)[C@@H](CC(=O)O)NC(=O)[C@H](Cc3cnc[nH]3)NC(=O)[C@@H](Cc3ccccc3)NC(=O)[C@H]([C@@H](C)CC)NC(=O)[C@@H](CCCN)NC2=O)[C@@H](C)CC)CS1 [bacitracin] ({Ileψ(thiazoline)Cys}-L[dE]IK[dOrn]I[dF]H[dD]N; lactam 4-C)
reduction of viability: ineffective and did not result in reduction of viability
